The text below walks through data of publication PMC5218480 (PLoS ONE, 2017).

The test relates to MV-4-11 cells. Briefly: Gene expression microarray analysis (Affymetrix PrimeView) and GSEA. Set-up: RFU PODN (11730768_x_at) / Fold change /veh PODN (11730768_x_at) / RFU LINC00158 (11744669_a_at) / Fold change /veh LINC00158 (11744669_a_at) / RFU DUSP10 (11751237_a_at) / Fold change /veh DUSP10 (11751237_a_at) / RFU ID3 (11757404_x_at) / Fold change /veh ID3 (11757404_x_at) / RFU PLEKHG5 (11737974_s_at) / Fold change /veh PLEKHG5 (11737974_s_at) / RFU LRRC4B (11730491_at) / Fold change /veh LRRC4B (11730491_at) / RFU GIMAP4 (11747438_a_at) / Fold change /veh GIMAP4 (11747438_a_at) / RFU KRT8 (11758183_x_at) / Fold change /veh KRT8 (11758183_x_at) / RFU CNN1 (11734310_a_at) / Fold change /veh CNN1 (11734310_a_at) / RFU VPS37D (11726825_at) / Fold change /veh VPS37D (11726825_at) / RFU C10orf10 (11716522_x_at) / Fold change /veh C10orf10 (11716522_x_at) / RFU KIR2DL2 /// KIR2DL4 /// KIR2DL5A /// KIR2DL5B /// KIR2DS1 /// KIR2DS2 /// KIR2DS3 /// KIR2DS4 /// KIR3DL3 /// KIR3DL3 /// KIR3DS1 (11738374_at) / Fold change /veh KIR2DL2 /// KIR2DL4 /// KIR2DL5A /// KIR2DL5B /// KIR2DS1 /// KIR2DS2 /// KIR2DS3 /// KIR2DS4 /// KIR3DL3 /// KIR3DL3 /// KIR3DS1 (11738374_at) / RFU C1QL1 (11718748_at) / Fold change /veh C1QL1 (11718748_at) / RFU TMPRSS4 (11747572_a_at) / Fold change /veh TMPRSS4 (11747572_a_at) / RFU HAMP (11756126_x_at) / Fold change /veh HAMP (11756126_x_at) / RFU RNFT2 (11725882_a_at) / Fold change /veh RNFT2 (11725882_a_at) / RFU NR4A2 (11747474_a_at) / Fold change /veh NR4A2 (11747474_a_at) / RFU ABCC12 (11746883_a_at) / Fold change /veh ABCC12 (11746883_a_at) / RFU TMEM136 (11760407_x_at) / Fold change /veh TMEM136 (11760407_x_at) / RFU CLDN22 /// WWC2 (11732394_at) / Fold change /veh CLDN22 /// WWC2 (11732394_at) / RFU HLA-DPB1 (11760878_x_at) / Fold change /veh HLA-DPB1 (11760878_x_at) / RFU SPINT1 (11716480_a_at) / Fold change /veh SPINT1 (11716480_a_at) / RFU GAP43 (11754022_s_at) / Fold change /veh GAP43 (11754022_s_at) / RFU A4GNT (11735810_at) / Fold change /veh A4GNT (11735810_at) / RFU PRB3 (11715151_x_at) / Fold change /veh PRB3 (11715151_x_at) / RFU TUBB4B (11761932_at) / Fold change /veh TUBB4B (11761932_at) / RFU CAPN14 (11732068_a_at) / Fold change /veh CAPN14 (11732068_a_at) / RFU TMCC2 (11721928_a_at) / Fold change /veh TMCC2 (11721928_a_at) / RFU IRGQ (11745062_a_at) / Fold change /veh IRGQ (11745062_a_at) / RFU FAM174B (11720279_a_at) / Fold change /veh FAM174B (11720279_a_at) / RFU TMPRSS4 (11748680_a_at) / Fold change /veh TMPRSS4 (11748680_a_at) / RFU FAM212B (11763350_a_at) / Fold change /veh FAM212B (11763350_a_at) / RFU PLEKHG5 (11743358_a_at) / Fold change /veh PLEKHG5 (11743358_a_at) / RFU ZSCAN30 (11745921_a_at) / Fold change /veh ZSCAN30 (11745921_a_at) / RFU CMKLR1 (11741424_a_at) / Fold change /veh CMKLR1 (11741424_a_at) / RFU LOC101060620 /// MAPK8IP1 (11723275_at) / Fold change /veh LOC101060620 /// MAPK8IP1 (11723275_at) / RFU SPTSSB (11747773_x_at) / Fold change /veh SPTSSB (11747773_x_at) / RFU PRSS12 (11739890_at) / Fold change /veh PRSS12 (11739890_at) / RFU BIN1 (11741810_x_at) / Fold change /veh BIN1 (11741810_x_at) / RFU WNT11 (11732464_a_at) / Fold change /veh WNT11 (11732464_a_at) / RFU C10orf10 (11716521_a_at) / Fold change /veh C10orf10 (11716521_a_at) / RFU C5orf56 (11738089_at) / Fold change /veh C5orf56 (11738089_at) / RFU CYB561 (11721691_x_at) / Fold change /veh CYB561 (11721691_x_at) / RFU ANKRD19P (11752326_a_at) / Fold change /veh ANKRD19P (11752326_a_at) / RFU OR2T12 /// OR2T33 /// OR2T8 (11738714_s_at) / Fold change /veh OR2T12 /// OR2T33 /// OR2T8 (11738714_s_at) / RFU VCAN (11748164_a_at) / Fold change /veh VCAN (11748164_a_at) / RFU JSRP1 (11732532_at) / Fold change /veh JSRP1 (11732532_at) / RFU KRTAP10-11 (11738290_x_at) / Fold change /veh KRTAP10-11 (11738290_x_at) / RFU MYO3A (11730013_a_at) / Fold change /veh MYO3A (11730013_a_at) / RFU EBF3 (11725865_a_at) / Fold change /veh EBF3 (11725865_a_at) / RFU CAMK2N1 (11719241_x_at) / Fold change /veh CAMK2N1 (11719241_x_at) / RFU C5orf56 (11738088_a_at) / Fold change /veh C5orf56 (11738088_a_at) / RFU OLFML3 (11715873_a_at) / Fold change /veh OLFML3 (11715873_a_at) / RFU LOC100653217 /// NTM (11731650_a_at) / Fold change /veh LOC100653217 /// NTM (11731650_a_at) / RFU MAPK11 (11762145_a_at) / Fold change /veh MAPK11 (11762145_a_at) / RFU FIZ1 (11724087_x_at) / Fold change /veh FIZ1 (11724087_x_at) / RFU OASL (11726364_x_at) / Fold change /veh OASL (11726364_x_at) / RFU SOX15 (11748057_x_at) / Fold change /veh SOX15 (11748057_x_at) / RFU CD79A (11719716_a_at) / Fold change /veh CD79A (11719716_a_at) / RFU HIST1H1D (11736915_at) / Fold change /veh HIST1H1D (11736915_at) / RFU CASKIN2 (11723855_a_at) / Fold change /veh CASKIN2 (11723855_a_at) / RFU LOC730098 (11760151_x_at) / Fold change /veh LOC730098 (11760151_x_at) / RFU OR4N2 (11742367_at) / Fold change /veh OR4N2 (11742367_at) / RFU PRRT2 (11749266_a_at) / Fold change /veh PRRT2 (11749266_a_at) / RFU SNX32 (11753110_a_at) / Fold change /veh SNX32 (11753110_a_at) / RFU CDHR5 (11726645_a_at) / Fold change /veh CDHR5 (11726645_a_at) / RFU RCAN1 (11760418_a_at) / Fold change /veh RCAN1 (11760418_a_at) / RFU FAM167A (11723789_a_at) / Fold change /veh FAM167A (11723789_a_at) / RFU FAM26E (11764081_at) / Fold change /veh FAM26E (11764081_at) / RFU ISYNA1 (11749810_s_at) / Fold change /veh ISYNA1 (11749810_s_at) / RFU ACY1 (11761880_at) / Fold change /veh ACY1 (11761880_at) / RFU 11764098_at / Fold change /veh 11764098_at / RFU SAMD14 (11745864_x_at) / Fold change /veh SAMD14 (11745864_x_at) / RFU NPB (11741838_a_at) / Fold change /veh NPB (11741838_a_at) / RFU TMPRSS6 (11731388_a_at) / Fold change /veh TMPRSS6 (11731388_a_at) / RFU KRTAP10-2 (11738614_at) / Fold change /veh KRTAP10-2 (11738614_at) / RFU ARHGAP8 /// PRR5-ARHGAP8 (11727945_x_at) / Fold change /veh ARHGAP8 /// PRR5-ARHGAP8 (11727945_x_at) / RFU KRTAP5-7 /// NADSYN1 (11734609_at) / Fold change /veh KRTAP5-7 /// NADSYN1 (11734609_at) / RFU RASL12 (11751679_a_at) / Fold change /veh RASL12 (11751679_a_at) / RFU CDKN2B (11736163_a_at) / Fold change /veh CDKN2B (11736163_a_at) / RFU PRF1 (11729649_at) / Fold change /veh PRF1 (11729649_at) / RFU, ZNF638 /// ZNF638-IT1 / Fold change vs veh, ZNF638 /// ZNF638-IT1 / RFU, PANK3 / Fold change vs veh, PANK3 / RFU, SH3YL1 / Fold change vs veh, SH3YL1 / RFU, ZEB2 / Fold change vs veh, ZEB2 / RFU, NRIP1 / Fold change vs veh, NRIP1 / RFU, PTTG1IP / Fold change vs veh, PTTG1IP / RFU, CAPN2 / Fold change vs veh, CAPN2 / RFU, MED14 / Fold change vs veh, MED14 / RFU, SNORA58 / Fold change vs veh, SNORA58 / RFU, C1orf63 / Fold change vs veh, C1orf63 / RFU, LRRFIP1 / Fold change vs veh, LRRFIP1 / RFU, NDUFAF7 / Fold change vs veh, NDUFAF7 / RFU, SLC12A2 / Fold change vs veh, SLC12A2 / RFU, IBTK / Fold change vs veh, IBTK / RFU, ESF1 / Fold change vs veh, ESF1 / Fold change vs veh, TMEM50B / RFU, TAOK1 / Fold change vs veh, TAOK1 / RFU, ACBD3 / Fold change vs veh, ACBD3 / RFU, TMA16 / Fold change vs veh, TMA16 / RFU, RWDD3 / Fold change vs veh, RWDD3 / RFU, BCAT1 / Fold change vs veh, BCAT1 / RFU, EDEM3 / Fold change vs veh, EDEM3 / RFU, TMEM33 / Fold change vs veh, TMEM33 / RFU, WDR75 / Fold change vs veh, WDR75 / RFU, AHCTF1 / Fold change vs veh, AHCTF1 / RFU, TFRC / Fold change vs veh, TFRC / RFU, ZDHHC17 / Fold change vs veh, ZDHHC17 / RFU, NOM1 / Fold change vs veh, NOM1 / RFU, ARL8B / Fold change vs veh, ARL8B / RFU, ZBTB11 / Fold change vs veh, ZBTB11 / RFU, TAMM41 / Fold change vs veh, TAMM41 / RFU, KIAA1704 /// LOC100996395 / Fold change vs veh, KIAA1704 /// LOC100996395 / RFU, ING1 / Fold change vs veh, ING1 / RFU, TRMT61B / Fold change vs veh, TRMT61B / RFU, FUBP3 / Fold change vs veh, FUBP3 / RFU, TP53 / Fold change vs veh, TP53 / RFU, TNKS2 / Fold change vs veh, TNKS2 / RFU, ZFP14 / Fold change vs veh, ZFP14 / RFU, ACTR2 / Fold change vs veh, ACTR2 / RFU, PPP3R1 / Fold change vs veh, PPP3R1 / RFU, PIK3R1 / Fold change vs veh, PIK3R1 / RFU, HNRNPA1 / Fold change vs veh, HNRNPA1 / RFU, RNF170 / Fold change vs veh, RNF170 / RFU, ZNF28 / Fold change vs veh, ZNF28 / RFU, RNGTT / Fold change vs veh, RNGTT / RFU, OGT / Fold change vs veh, OGT / RFU, BRD1 / Fold change vs veh, BRD1 / RFU, MARS / Fold change vs veh, MARS / RFU, ZNF655 / Fold change vs veh, ZNF655 / RFU, FAHD1 / Fold change vs veh, FAHD1 / RFU, BDP1 / Fold change vs veh, BDP1 / RFU, LRRCC1 / Fold change vs veh, LRRCC1 / RFU, ARID1A / Fold change vs veh, ARID1A / RFU, ZNF146 / Fold change vs veh, ZNF146 / RFU, ZNF330 / Fold change vs veh, ZNF330 / RFU, GPN3 / Fold change vs veh, GPN3 / RFU, C9orf123 / Fold change vs veh, C9orf123 / RFU, N4BP2L2 / Fold change vs veh, N4BP2L2 / RFU, ARFIP1 / Fold change vs veh, ARFIP1 / RFU, FAM179B / Fold change vs veh, FAM179B / RFU, BCL10 / Fold change vs veh, BCL10 / RFU, UHRF1BP1L / Fold change vs veh, UHRF1BP1L / RFU, BET1 / Fold change vs veh, BET1 / RFU, CNOT2 / Fold change vs veh, CNOT2 / RFU, ZNF268 / Fold change vs veh, ZNF268 / Fold change vs veh, ZNF507 / RFU, DGCR2 / Fold change vs veh, DGCR2 / RFU, WDSUB1 / Fold change vs veh, WDSUB1 / Fold change vs veh, HSP90B1 /// MIR3652 / RFU, ADSS / Fold change vs veh, ADSS / RFU, GK / Fold change vs veh, GK / RFU, ZNF148 / Fold change vs veh, ZNF148 / RFU, TAF9 / Fold change vs veh, TAF9 / RFU, SLC1A5 / Fold change vs veh, SLC1A5 / RFU, SLMO2 / Fold change vs veh, SLMO2 / RFU, ABCC4 / Fold change vs veh, ABCC4 / RFU, LOC101060439 /// RAP1B / Fold change vs veh, LOC101060439 /// RAP1B / RFU, RFX7 / Fold change vs veh, RFX7 / RFU, GTPBP10 / Fold change vs veh, GTPBP10 / RFU, CNEP1R1 / Fold change vs veh, CNEP1R1 / RFU, BIVM-ERCC5 /// ERCC5 / Fold change vs veh, BIVM-ERCC5 /// ERCC5 / RFU, ILF3 / Fold change vs veh, ILF3 / RFU 11762660_at / Fold change /veh 11762660_at / RFU VCAN (11757783_s_at) / Fold change /veh VCAN (11757783_s_at) / RFU DDX43 (11728927_at) / Fold change /veh DDX43 (11728927_at) / RFU KRT8 (11758188_x_at) / Fold change /veh KRT8 (11758188_x_at) / RFU NKD1 (11759106_at) / Fold change /veh NKD1 (11759106_at) / RFU SRD5A1 (11742802_a_at) / Fold change /veh SRD5A1 (11742802_a_at) / RFU TPSAB1 /// TPSB2 (11721975_s_at) / Fold change /veh TPSAB1 /// TPSB2 (11721975_s_at) / RFU GSTM3 (11746129_a_at) / Fold change /veh GSTM3 (11746129_a_at) / RFU IL23R (11737362_x_at) / Fold change /veh IL23R (11737362_x_at) / RFU TMEM51 (11727254_a_at) / Fold change /veh TMEM51 (11727254_a_at) / RFU PIWIL2 (11732686_x_at) / Fold change /veh PIWIL2 (11732686_x_at) / RFU ORM1 (11744905_x_at) / Fold change /veh ORM1 (11744905_x_at) / RFU CCDC152 (11743942_at) / Fold change /veh CCDC152 (11743942_at) / RFU ECM1 (11717891_a_at) / Fold change /veh ECM1 (11717891_a_at) / RFU IL23R (11748794_a_at) / Fold change /veh IL23R (11748794_a_at) / RFU TNFAIP8L3 (11732012_x_at) / Fold change /veh TNFAIP8L3 (11732012_x_at) / RFU MBOAT4 (11741988_at) / Fold change /veh MBOAT4 (11741988_at) / RFU 11764193_at / Fold change /veh 11764193_at / RFU TMEM53 (11763286_at) / Fold change /veh TMEM53 (11763286_at) / RFU MAGEB2 (11727129_at) / Fold change /veh MAGEB2 (11727129_at) / RFU TMEM200A (11744735_a_at) / Fold change /veh TMEM200A (11744735_a_at) / RFU CCDC152 (11751479_a_at) / Fold change /veh CCDC152 (11751479_a_at) / RFU FAM211A (11726209_a_at) / Fold change /veh FAM211A (11726209_a_at) / RFU RGS16 (11746705_a_at) / Fold change /veh RGS16 (11746705_a_at) / RFU VCAN (11755009_s_at) / Fold change /veh VCAN (11755009_s_at) / RFU RHOB (11743442_s_at) / Fold change /veh RHOB (11743442_s_at) / RFU RGS16 (11720943_a_at) / Fold change /veh RGS16 (11720943_a_at) / RFU RGS16 (11720944_at) / Fold change /veh RGS16 (11720944_at) / RFU, VPS4B / Fold change vs veh, VPS4B / RFU, CREB1 / Fold change vs veh, CREB1 / RFU, DNAJC13 / Fold change vs veh, DNAJC13 / RFU, GNAQ / Fold change vs veh, GNAQ / RFU, CDK5R1 / Fold change vs veh, CDK5R1 / RFU, ZRANB3 / Fold change vs veh, ZRANB3 / RFU, CUL4A / Fold change vs veh, CUL4A / RFU, CCNY / Fold change vs veh, CCNY / RFU, UFL1 / Fold change vs veh, UFL1 / RFU, COG3 / Fold change vs veh, COG3 / RFU, DIAPH2 / Fold change vs veh, DIAPH2 / RFU, SKA2 / Fold change vs veh, SKA2 / RFU, AFF3 / Fold change vs veh, AFF3 / RFU, LMF1 / Fold change vs veh, LMF1 / RFU, IPO11 / Fold change vs veh, IPO11 / RFU, DFFB / Fold change vs veh, DFFB / RFU, FOXP1 / Fold change vs veh, FOXP1 / RFU, CARD8 / Fold change vs veh, CARD8 / RFU, STRN3 / Fold change vs veh, STRN3 / RFU, ADK / Fold change vs veh, ADK / RFU, RASSF2 / Fold change vs veh, RASSF2 / RFU, WIPF1 / Fold change vs veh, WIPF1 / RFU, LARP1B / Fold change vs veh, LARP1B / RFU, RASA1 / Fold change vs veh, RASA1 / RFU, RB1 / Fold change vs veh, RB1 / RFU, PPFIA1 / Fold change vs veh, PPFIA1 / RFU, MAT2A / Fold change vs veh, MAT2A / RFU, CCT5 / Fold change vs veh, CCT5 / RFU, WDR92 / Fold change vs veh, WDR92 / RFU, CUX1 / Fold change vs veh, CUX1 / RFU, TTC7A / Fold change vs veh, TTC7A / RFU, TMEM135 / Fold change vs veh, TMEM135 / RFU, DEPTOR / Fold change vs veh, DEPTOR / RFU, CPM / Fold change vs veh, CPM / RFU, DNAJB6 / Fold change vs veh, DNAJB6 / RFU, CACNA2D3 / Fold change vs veh, CACNA2D3 / RFU, DTX4 / Fold change vs veh, DTX4 / RFU, TFCP2 / Fold change vs veh, TFCP2 / RFU, GMCL1 /// GMCL1P1 / Fold change vs veh, GMCL1 /// GMCL1P1 / RFU, AEBP2 / Fold change vs veh, AEBP2 / RFU, SNHG1 /// SNORD22 /// SNORD25 /// SNORD26 /// SNORD27 /// SNORD28 /// SNORD29 /// SNORD31 / Fold change vs veh, SNHG1 /// SNORD22 /// SNORD25 /// SNORD26 /// SNORD27 /// SNORD28 /// SNORD29 /// SNORD31 / Fold change (Aza/veh), C12orf56 (ProbeSet 11735607_a_at) / Fold change (ACY-1035/veh), C12orf56 (ProbeSet 11735607_a_at) / Fold change (Aza/veh), FGFR1OP (ProbeSet 11751329_s_at) / Fold change (ACY-1035/veh), FGFR1OP (ProbeSet 11751329_s_at) / Fold change (Aza/veh), VPS36 (ProbeSet 11739960_a_at) / Fold change (ACY-1035/veh), VPS36 (ProbeSet 11739960_a_at) / RFU SYPL1 (11715823_x_at) / Fold change /veh SYPL1 (11715823_x_at) / RFU IGFBP7 (11715501_s_at) / Fold change /veh IGFBP7 (11715501_s_at) / RFU REEP3 (11722064_at) / Fold change /veh REEP3 (11722064_at) / RFU IGLL1 (11728026_x_at) / Fold change /veh IGLL1 (11728026_x_at): dose or concentration left out as unconfirmed. Type of test: cell-based, human. To be noted: ProbeSet 11732154_at; LIST B.

Regarding `Nc1ncn([C@@H]2O[C@H](CO)[C@@H](O)[C@H]2O)c(=O)n1` [azacitidine], the “Fold change vs veh, OGT” value turned out to be 0.90.
